Patent publication US11866430B2, “Naphthyridinone compounds useful as T cell activators” (priority 2018, dated 2024)
Where two headings read alike, the source gives them in different places.

How the values were obtained:
[1] = tested on: OT-1 antigen-specific CD8+ T cells with MC38 tumor cells; assay: Murine Cytotoxic T Lymphocyte Assay (IFN-γ); type: cell-based, mouse
Text: An antigen-specific cytolytic T-cell (CTL) assay was developed to evaluate functionally the ability of DGKα and DGKζ inhibitors to enhance effector T cell mediated tumor cell killing activity. CD8+ T-cells isolated from the OT-1 transgenic mouse recognize antigen presenting cells, MC38, that present the ovalbumin derived peptide […]. Recognition of the cognate antigen initiates the cytolytic activity of the OT-1 antigen-specific CD8+ T cells.
Functional CTL cells were generated as follows: OT-1 splenocytes from 8-12 week old mice were isolated and expanded in the presence of the […] peptide at 1 μg/mL and mIL2 at 10 U/mL. After three days, fresh media with mIL2 U/mL was added. On day 5 of the expansion, the CD8+ T cells were isolated and ready for use. Activated CTL cells may be stored frozen for 6 months. […] The cells were washed (3×) with fresh media to remove excess peptide. Finally, CTL cells that were pretreated with DGK inhibitors for 1 hour in a 96-well U bottom plate were combined with the antigen loaded MC38 tumor cells at a 1:10 ratio. The cells were then spun at 700 rpm for 5 min and placed in an incubator overnight at 37° C. After 24 hours, the supernatant was collected for analysis of IFN-γ cytokine levels by AlphaLisa purchased from Perkin Elmer.

human DGKα = human DGKα (Homo sapiens (Human), UniProt P23743); assay: DGKα LIPGLO assay (extruded liposome substrate); type: biochemical
Sequence of human DGKα (P23743 other isoform, or with tags, fused parts or gaps): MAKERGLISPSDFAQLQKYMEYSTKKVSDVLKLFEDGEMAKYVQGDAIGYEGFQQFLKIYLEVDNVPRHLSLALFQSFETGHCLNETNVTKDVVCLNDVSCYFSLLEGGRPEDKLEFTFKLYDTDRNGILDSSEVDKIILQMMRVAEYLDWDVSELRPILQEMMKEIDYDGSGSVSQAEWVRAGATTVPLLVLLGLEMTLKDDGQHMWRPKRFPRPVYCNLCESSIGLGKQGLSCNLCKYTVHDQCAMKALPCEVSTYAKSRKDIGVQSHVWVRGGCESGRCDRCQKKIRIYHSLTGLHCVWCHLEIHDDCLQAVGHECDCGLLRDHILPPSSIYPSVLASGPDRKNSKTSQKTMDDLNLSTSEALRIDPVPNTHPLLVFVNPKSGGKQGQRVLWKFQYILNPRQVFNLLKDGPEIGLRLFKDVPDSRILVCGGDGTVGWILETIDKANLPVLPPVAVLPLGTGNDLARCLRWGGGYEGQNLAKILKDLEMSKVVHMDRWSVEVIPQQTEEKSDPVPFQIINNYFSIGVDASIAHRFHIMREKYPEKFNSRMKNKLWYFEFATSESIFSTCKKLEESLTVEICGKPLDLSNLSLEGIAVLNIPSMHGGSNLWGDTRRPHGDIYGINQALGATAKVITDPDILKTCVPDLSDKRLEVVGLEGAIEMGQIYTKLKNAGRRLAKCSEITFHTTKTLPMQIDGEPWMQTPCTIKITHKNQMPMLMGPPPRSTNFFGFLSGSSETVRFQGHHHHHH
Procedure, shortened: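 Human full-length DGKα, His-tagged and produced in Sf9 cells, assayed at 20 nM (4× stock) on extruded liposomes of PS, 0.25 mM DAG and 2.75 mM PC, preincubated 10 min. Reaction started with 300 μM ATP (stock) and ran 1 h in MOPS pH 7.5/MgCl2/CaCl2/DTT buffer.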

human DGKζ = human DGKζ (Homo sapiens (Human), UniProt Q13574); assay: DGKζ assay (detergent/lipid micelle substrate); type: biochemical
Sequence of human DGKζ (Q13574 other isoform, or with tags, fused parts or gaps): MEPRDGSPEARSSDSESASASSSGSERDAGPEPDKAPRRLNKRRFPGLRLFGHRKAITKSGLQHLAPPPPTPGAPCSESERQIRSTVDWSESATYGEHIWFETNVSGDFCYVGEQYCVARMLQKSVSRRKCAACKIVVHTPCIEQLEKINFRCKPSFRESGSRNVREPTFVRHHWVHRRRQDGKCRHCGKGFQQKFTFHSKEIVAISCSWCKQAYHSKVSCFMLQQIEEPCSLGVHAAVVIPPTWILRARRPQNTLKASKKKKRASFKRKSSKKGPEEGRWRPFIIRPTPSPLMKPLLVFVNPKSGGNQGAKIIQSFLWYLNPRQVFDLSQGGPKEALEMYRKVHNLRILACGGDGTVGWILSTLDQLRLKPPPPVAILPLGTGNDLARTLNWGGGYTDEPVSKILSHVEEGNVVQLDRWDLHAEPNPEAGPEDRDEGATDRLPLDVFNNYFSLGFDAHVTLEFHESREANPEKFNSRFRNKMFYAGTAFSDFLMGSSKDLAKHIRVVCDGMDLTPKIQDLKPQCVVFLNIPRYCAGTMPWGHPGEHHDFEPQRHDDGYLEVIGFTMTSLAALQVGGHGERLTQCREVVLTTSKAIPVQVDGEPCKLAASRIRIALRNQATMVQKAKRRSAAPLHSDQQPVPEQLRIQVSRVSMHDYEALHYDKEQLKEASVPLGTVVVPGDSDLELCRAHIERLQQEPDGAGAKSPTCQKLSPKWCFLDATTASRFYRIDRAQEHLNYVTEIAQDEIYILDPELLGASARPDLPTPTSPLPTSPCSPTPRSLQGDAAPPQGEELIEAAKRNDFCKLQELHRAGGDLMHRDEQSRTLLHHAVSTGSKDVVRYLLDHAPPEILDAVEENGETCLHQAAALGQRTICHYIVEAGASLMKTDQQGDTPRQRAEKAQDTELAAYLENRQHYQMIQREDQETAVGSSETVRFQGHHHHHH
Procedure, shortened: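 Enzymes were baculovirus/Sf9 full-length human DGKα or DGKζ with His tag. The substrate was PS/DAG in octyl glucoside micelles, in MOPS pH 7.5 buffer with NaCl, MgCl2, CaCl2 and DTT.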

[2] = Mus musculus, MC-38, read-out: msCTL INF-γ IC50, murine CTL IFN-γ (table title reads INF-γ Whole Blood Normalized Agonist EC50)
[3] = detergent/lipid micelle substrate, read-out: DGKζ IC50
[4] = read-out: msCTL INF-γ IC50, murine CTL IFN-γ (table title reads INF-γ Whole Blood Normalized Agonist EC50)

COc1cc(C#N)ccc1CN1CCN(c2c(C#N)c(=O)n(C)c3ccc(Cl)nc23)CC1 [Example 424, 6-chloro-4-{4-[(4-cyano-2-methoxyphenyl)methyl]piperazin-1-yl}-1-methyl-2-oxo-1,2-dihydro-1,5-naphthyridine-3-carbonitrile] showed an IC50 [1, 2] of 10000 nM, an IC50 (human DGKα) of 1400 nM and an IC50 (human DGKζ; [3]) of over 240000 nM.

Work on Cn1c(=O)c(C#N)c(N2CCN(C(C)(C)c3ccc(F)cc3)CC2)c2nc(Cl)ccc21 [Example 425, 6-chloro-4-{4-[2-(4-fluorophenyl)propan-2-yl]piperazin-1-yl}-1-methyl-2-oxo-1,2-dihydro-1,5-naphthyridine-3-carbonitrile] yielded an IC50 [1, 2] of 2980 nM, an IC50 (human DGKα) of 20000 nM and an IC50 (human DGKζ; [3]) of over 240000 nM.

COc1cc(F)ccc1C(c1ccc(F)cc1)N1CCN(c2c([N+](=O)[O-])c(=O)n(C)c3ccc(C#N)nc23)CC1 (single isomer, unassigned) [Example 124, 8-(4-((4-fluoro-2-methoxyphenyl)(4-fluorophenyl)methyl)piperazin-1-yl)-5-methyl-7-nitro-6-oxo-5,6-dihydro-1,5-naphthyridine-2-carbonitrile] showed an IC50 [1, 2] of 40 nM, an IC50 (human DGKα) of 750 nM and an IC50 (human DGKζ; DGKζ IC50, detergent/lipid micelle substrate) of 900 nM.

C#CCn1c(=O)c([N+](=O)[O-])c(N2CCN(C(CC)c3ccc(F)cc3)CC2)c2nc(C#N)ccc21 (single isomer, unassigned) [Example 141, 8-{4-[1-(4-fluorophenyl)propyl]piperazin-1-yl}-7-nitro-6-oxo-5-(prop-2-yn-1-yl)-5,6-dihydro-1,5-naphthyridine-2-carbonitrile] gave an IC50 [1, 2] of 290 nM, an IC50 (human DGKα) of 580 nM and an IC50 (human DGKζ; [3]) of 8900 nM.

Cc1ccc(CN2CCN(c3c(C#N)c(=O)n(C)c4ccc(Cl)nc34)CC2)cc1 [Example 386, 6-chloro-1-methyl-4-{4-[(4-methylphenyl)methyl]piperazin-1-yl}-2-oxo-1,2-dihydro-1,5-naphthyridine-3-carbonitrile] was tested, and the IC50 [1, 2] was 590 nM, the IC50 (human DGKα) was 260 nM and the IC50 (human DGKζ; [3]) was 190000 nM.

CC(C)C(c1ccc(F)cc1)N1CCN(c2c(C#N)c(=O)n(C)c3ccc(Cl)nc23)CC1 (single isomer, unassigned) [Example 315, 6-chloro-4-{4-[1-(4-fluorophenyl)-2-methylpropyl]piperazin-1-yl}-methyl-2-oxo-1,2-dihydro-1,5-naphthyridine-3-carbonitrile] was tested, and the IC50 (human DGKα) was over 240000 nM and the IC50 (human DGKζ; [3]) was over 240000 nM.

For Cn1c(=O)c(C#N)c(N2CCN(C(c3ccc(F)cc3)c3ccccc3O)CC2)c2nc(C#N)ccc21 (stereo not drawn) [Example 11, 8-{4-[(4-fluorophenyl)(2-hydroxyphenyl)methyl]piperazin-1-yl}-5-methyl-6-oxo-5,6-dihydro-1,5-naphthyridine-2,7-dicarbonitrile], the IC50 (human DGKα) was 1800 nM and the IC50 (human DGKζ; [3]) was 4000 nM.

Work on COc1ccccc1C(c1ccc(F)cc1)N1CCN(c2c(C#N)c(=O)n(C)c3ccc(Br)nc23)CC1 (single isomer, unassigned) [Example 13, 6-bromo-4-{4-[(4-fluorophenyl)(2-methoxyphenyl)methyl]piperazin-1-yl}-1-methyl-2-oxo-1,2-dihydro-1,5-naphthyridine-3-carbonitrile] yielded an IC50 [1, 2] of 640 nM, an IC50 (human DGKα) of 5400 nM and an IC50 (human DGKζ; [3]) of over 240000 nM.

Work on Cc1cccc(CN2CCN(c3c(C#N)c(=O)n(C)c4ccc(Cl)nc34)CC2)c1O [Example 391, 6-chloro-4-{4-[(2-hydroxy-3-methylphenyl)methyl]piperazin-1-yl}-1-methyl-2-oxo-1,2-dihydro-1,5-naphthyridine-3-carbonitrile] yielded an IC50 [1, 2] of 730 nM, an IC50 (human DGKα) of 1800 nM and an IC50 (human DGKζ; [3]) of 36000 nM.

Compound Cc1ccc2c(n1)c(N1CCN(C(C)c3ccc(F)cc3)CC1)c(Br)c(=O)n2C (stereo not drawn) [Example 224, 3-bromo-4-(4-(1-(4-fluorophenyl)ethyl)piperazin-1-yl)-1,6-dimethyl-1,5-naphthyridin-2(1H)-one] has an IC50 [1, 2] of 10000 nM, an IC50 (human DGKα) of 140 nM and an IC50 (human DGKζ; [3]) of over 240000 nM.

With Cn1c(=O)c(C#N)c(N2CCN(C(c3ccc(F)cc3)C3CCC3)CC2)c2nc(Cl)ccc21 (single isomer, unassigned) [Example 383, 6-chloro-4-{4-[cyclobutyl(4-fluorophenyl)methyl]piperazin-1-yl}-1-methyl-2-oxo-1,2-dihydro-1,5-naphthyridine-3-carbonitrile] the IC50 [1, 2] was 10000 nM and the IC50 (human DGKα) was 220 nM.

COc1cc(F)ccc1C(c1ccc(F)cc1)N1CCN(c2c(C#N)c(=O)n(C)c3ccc(C#N)nc23)CC1 (single isomer, unassigned) [Example 406, 8-{4-[(4-fluoro-2-methoxyphenyl)(4-fluorophenyl)methyl]piperazin-1-yl}-5-methy-6-oxo-5,6-dihydro-L5-naphthyridine-2,7-dicarbonitrile] was tested, and the IC50 [1, 4] was 160 nM and the IC50 (human DGKα) was 13000 nM.

Work on CC(c1ccc(F)cc1)N1CCN(c2c(C#N)c(=O)n(C)c3ccc(Cl)nc23)CC1 (single isomer, unassigned) [Example 388, 6-chloro-4-{4-[1-(4-fluorophenyl)ethyl]piperazin-1-yl}-1-methyl-2-oxo-1,2-dihydro-1,5-naphthyridine-3-carbonitrile] yielded an IC50 (human DGKα) of 51 nM and an IC50 (human DGKζ; [3]) of over 240000 nM.

CC(c1ccc(F)cc1)N1CCN(c2c(C#N)c(=O)n(C)c3ccc(Cl)nc23)CC1 (single isomer, unassigned) [Example 387, 6-chloro-4-{4-[1-(4-fluorophenyl)ethyl]piperazin-1-yl}-1-methyl-2-oxo-1,2-dihydro-1,5-naphthyridine-3-carbonitrile] showed an IC50 (human DGKα) of 270 nM and an IC50 (human DGKζ; [3]) of over 240000 nM.

Compound C#CCn1c(=O)c([N+](=O)[O-])c(N2CCN(C(c3ccc(F)cc3)c3ccc(F)cc3O)CC2)c2nc(C#N)ccc21 (single isomer, unassigned) [Example 121, 8-(4-((4-fluoro-2-hydroxyphenyl)(4-fluorophenyl)methyl)piperazin-1-yl)-7-nitro-6-oxo-5-(prop-2-yn-1-yl)-5,6-dihydro-1,5-naphthyridine-2-carbonitrile] has an IC50 [1, 2] of 50 nM, an IC50 (human DGKα) of 6400 nM and an IC50 (human DGKζ; [3]) of 180 nM.

In the case of Cn1c(=O)c(C#N)c(N2CCN(C(c3ccc(F)cc3)C3CCC3)CC2)c2nc(Cl)ccc21 (single isomer, unassigned) [Example 382, 6-chloro-4-{4-[cyclobutyl(4-fluorophenyl)methyl]piperazin-1-yl}-1-methyl-2-oxo-1,2-dihydro-1,5-naphthyridine-3-carbonitrile], the IC50 (human DGKα) is reported as 760 nM.

Work on COc1ccc2c(n1)c(N1CCN(C(c3ccc(F)cc3)c3ccc(F)cc3OC)CC1)c(C#N)c(=O)n2C (racemic) [Example 412, 4-{4-[(4-fluoro-2-methoxyphenyl)(4-fluorophenyl)methyl]piperazin-1-yl}-6-methoxy-1-methyl-2-oxo-1,2-dihydro-1,5-naphthyridine-3-carbonitrile] yielded an IC50 [1, 2] of 360 nM and an IC50 (human DGKα) of 1800 nM.

CCCCn1c(=O)c([N+](=O)[O-])c(N2CCN(C(c3ccccc3)c3ccccc3)CC2)c2ncccc21 [Example 177, 4-(4-benzhydrylpiperazin-1-yl)-1-butyl-3-nitro-1,5-naphthyridin-2(1H)-one] gave an IC50 [1, 2] of 10000 nM and an IC50 (human DGKα) of over 240000 nM.

Cn1c(=O)c(C#N)c(N2CCN(C(CC(C)(C)C)c3ccc(F)cc3)CC2)c2nc(Cl)ccc21 (single isomer, unassigned) [Example 377, 6-chloro-4-{4-[1-(4-fluorophenyl)-3,3-dimethylbutyl]piperazin-1-yl}-1-methyl-2-oxo-1,2-dihydro-1,5-naphthyridine-3-carbonitrile] gave an IC50 (human DGKα) of over 240000 nM.

Cn1c(=O)c(C#N)c(N2CCN(C(CC(C)(C)C)c3ccc(F)cc3)CC2)c2nc(Cl)ccc21 (single isomer, unassigned) [Example 378, 6-chloro-4-{4-[1-(4-fluorophenyl)-3,3-dimethylbutyl]piperazin-1-yl}-1-methyl-2-oxo-1,2-dihydro-1,5-naphthyridine-3-carbonitrile] was tested, and the IC50 [1, 2] was 10000 nM and the IC50 (human DGKα) was 2200 nM.

In the case of COc1cc(F)ccc1C(c1ccc(F)cc1)N1CCN(c2c(C#N)c(=O)n(C)c3ccc(C#N)nc23)CC1 (single isomer, unassigned) [Example 407, 8-{4-[(4-fluoro-2-methoxyphenyl)(4-fluorophenyl)methyl]piperazin-1-yl}-5-methy-6-oxo-5,6-dihydro-L5-naphthyridine-2,7-dicarbonitrile], the IC50 [1, 4] is reported as 40 nM and the IC50 (human DGKα) is reported as 960 nM.

Cn1c(=O)c([N+](=O)[O-])c(N2CCN(Cc3cccc4ccccc34)CC2)c2nc(C#N)ccc21 [Example 415, 5-methyl-8-{4-[(naphthalen-1-yl)methyl]piperazin-1-yl}-7-nitro-6-oxo-5,6-dihydro-1,5-naphthyridine-2-carbonitrile] gave an IC50 [1, 2] of 10000 nM and an IC50 (human DGKα) of 650 nM.
